Measurements from patent US8541410B2, “Sulfur substituted sulfonylaminocarboxylic acid N-arylamides, their preparation, their use and pharmaceutical preparations comprising them” (Sanofi-aventis Deutschland GmbH, priority 1998, dated 2013).

Assays:
[1] = target: T1, soluble guanylate cyclase (sGC) (Bos taurus, UniProt P16068); assay: Activation of the soluble guanylate cyclase (cGMP enzyme immunoassay); assay type: biochemical, bovine; settings: n-fold stimulation of basal enzyme activity
T1 construct: The sGC which was employed had been isolated from bovine lung; from tissue; host or cells: bovine lung
T1 sequence (P16068 1-619): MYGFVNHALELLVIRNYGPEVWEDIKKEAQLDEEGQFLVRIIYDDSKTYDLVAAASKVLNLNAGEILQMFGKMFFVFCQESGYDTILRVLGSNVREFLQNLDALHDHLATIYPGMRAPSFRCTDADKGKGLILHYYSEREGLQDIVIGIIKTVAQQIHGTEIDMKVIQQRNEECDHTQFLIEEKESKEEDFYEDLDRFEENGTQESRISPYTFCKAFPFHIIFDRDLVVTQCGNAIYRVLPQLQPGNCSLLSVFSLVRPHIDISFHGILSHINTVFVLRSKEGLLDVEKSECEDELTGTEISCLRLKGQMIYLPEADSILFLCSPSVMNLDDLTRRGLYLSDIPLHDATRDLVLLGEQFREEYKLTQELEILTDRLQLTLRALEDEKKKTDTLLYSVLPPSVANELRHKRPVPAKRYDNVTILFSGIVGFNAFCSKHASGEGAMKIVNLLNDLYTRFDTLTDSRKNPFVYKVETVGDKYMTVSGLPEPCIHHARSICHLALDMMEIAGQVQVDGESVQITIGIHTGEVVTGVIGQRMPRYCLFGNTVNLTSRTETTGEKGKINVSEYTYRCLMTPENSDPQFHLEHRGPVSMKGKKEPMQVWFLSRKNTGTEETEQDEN
T1 sequence (P19687 1-691 partner): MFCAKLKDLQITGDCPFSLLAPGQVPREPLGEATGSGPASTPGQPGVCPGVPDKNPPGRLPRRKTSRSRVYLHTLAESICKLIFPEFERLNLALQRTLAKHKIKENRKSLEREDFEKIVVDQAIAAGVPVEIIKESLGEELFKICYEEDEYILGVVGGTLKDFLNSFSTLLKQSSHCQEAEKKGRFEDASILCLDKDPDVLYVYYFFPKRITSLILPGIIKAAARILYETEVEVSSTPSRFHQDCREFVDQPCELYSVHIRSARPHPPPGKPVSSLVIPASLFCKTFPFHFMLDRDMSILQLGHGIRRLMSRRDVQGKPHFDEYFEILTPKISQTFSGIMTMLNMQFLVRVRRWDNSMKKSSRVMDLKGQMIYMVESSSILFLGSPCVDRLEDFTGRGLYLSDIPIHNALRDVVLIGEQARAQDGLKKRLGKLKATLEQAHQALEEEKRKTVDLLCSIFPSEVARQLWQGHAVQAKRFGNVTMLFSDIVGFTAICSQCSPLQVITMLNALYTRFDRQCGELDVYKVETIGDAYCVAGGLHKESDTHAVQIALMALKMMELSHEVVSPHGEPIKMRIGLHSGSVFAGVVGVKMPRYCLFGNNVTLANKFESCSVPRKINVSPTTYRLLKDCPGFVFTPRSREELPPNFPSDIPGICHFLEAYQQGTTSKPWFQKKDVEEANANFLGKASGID
Method: The activation of the soluble guanylate cyclase (sGC) which catalyzes the conversion of guanosine triphosphate (GTP) into cyclic guanosine monophosphate (cGMP) and pyrophosphate, by the compounds according to the invention was quantified with the aid of an enzyme immunoassay (EIA) from Amersham. For this purpose the substances to be tested were initially incubated with sGC in microtiter plates, and the amount of the cGMP formed was then determined.
The sGC which was employed had been isolated from bovine lung (see Methods in Enzymology, Volume 195, p. 377). The test solutions (100 μl per well) contained 50 mM triethanolamine (TEA) buffer (pH 7.5), 3 mM MgCl2, 3 mM reduced glutathione (GSH), 0.1 mM GTP, 1 mM 3-isobutyl-1-methylxanthine (IBMX), suitably diluted enzyme solution and the substance to be tested or, in the control experiments, the solvent. The substances to be tested were dissolved in dimethyl sulfoxide (DMSO) and the solution was diluted with DMSO/water, so that the final concentration (c) of the substance to be tested in the test solution had the value indicated in the table. The DMSO concentration in the test solution was 5% (v/v). The reaction was initiated by addition of the sGC. The reaction mixture was incubated at 37° C. for 15 to 20 minutes and then stopped by ice-cooling and addition of the stop reagent (50 mM EDTA, pH 8.0). An aliquot of 50 μl was taken and used for determining the cGMP content using the acetylation protocol of the Amersham cGMP-EIA kit. The absorption of the samples was measured at 450 nm (reference wavelength 620 nm) in a microtiter plate reader. The cGMP concentration was determined using a standard curve which was obtained under the same test conditions. The activation of sGC by a test substance is given as the n-fold stimulation of the basal enzyme activity which was found in the control experiments (using solvent instead of test substance) (calculated using the formula n-fold stimulation=[cGMP]test substance/[cGMP]control).

rat aorta rings = assay: Relaxation of rat aorta (phenylephrine-precontracted rings); assay type: cell-based, rat (Wistar-Kyoto); settings: 50% relaxation of phenylephrine (1 μM) contraction
Text: For this test, normotensive male Wistar-Kyoto rats were sacrificed by a blow to the neck. The abdominal cavity and the thorax were opened by a medium stemotomy. The descending aorta was subsequently removed, freed of connective tissue and divided into 8 rings of a length of approximately 4 mm. The tip of a pair of tweezers was introduced into the lumen of 4 of the 8 rings. The endothelium was removed by carefully rolling the rings over the tip of the pair of tweezers. All 8 aorta rings (4 with endothelium and 4 without endothelium) were subsequently suspended in an organ bath (Schuler-Organbad; Hugo Sachs Elektronik) at a constant temperature of 37° C. for the isometric determination of the contractile tone. For 30 minutes, the rings were calibrated at a resting tension of 0.1 g in carbonated (95% O2; 5% CO2) Krebs-Henseleit solution (composition: Na^+ 144.0 mM; K^+ 5.9 mM; Cl^− 126.9 mM; Ca^2+ 1.6 mM; […] 1.2 mM; H2PO4^− 1.2 mM; SO4^2− 1.2 mM; HCO3^− 25.0 mM; D-glucose 11.1 mM) of pH 7.4. Additionally, 1 μmol/l of indomethacin were added to the Krebs-Henseleit solution to inhibit prostaglandin biosynthesis. The rings were subsequently precontracted by addition of phenylephrine (concentration in the solution: 1 μM) and the endothelium-dependent relaxation or the functional loss of the endothelium was tested by addition of acetylcholine (concentration in the solution: 1 μM). After a 30-minute washing period, the rings were then again precontracted by addition of phenylephrine (1 μM), and the relaxing action of the test substances of the formula I was determined by administration of cumulative doses of the latter. The data were evaluated by standard methods. Given is the concentration IC50 by which contraction is inhibited by 50% (50% relaxation).

pig = assay: Hemodynamic effect in the pig; assay type: in vivo, pig (German landrace); settings: 10 mg/kg i.d., anesthetized pigs
Method: Three pigs (German landrace) were anesthetized (Ketamine 20 mg/kg i.m., Methomidate 8 mg/kg i.p., Xylazine 2.5 mg/kg i.m. and Pentobarbital 25 mg/kg i.v. as a bolus plus 0.16 mg/kg per minute). The trachea was intubated and the animals were given artificial respiration with air. Oxygen was added to keep the blood gas parameters in the normal range. To record the blood pressure (BP; BP(s)=systolic blood pressure, BP(d)=diastolic blood pressure) by means of a Statham 23 Db pressure transducer a catheter was inserted into the right A. Femoralis. The left ventricular pressure (LVP), the left ventricular end-diastolic pressure (LVEDP), the contractility (dP/dt) and the heart rate (HR) were determined with a Millar PC 350 catheter “tip manometer” which was inserted into the […] ventricle. After a stabilization period of the hemodynamic parameters of 30 minutes the test substance was administered in the indicated dose into the exposed duodenum by means of a catheter. The determined data were evaluated according to standard methods. Given are the means and the standard deviations (M±SEM) of the starting values and of the maximal changes of the individual parameters (=maximal effects).

COc1cc(NS(=O)(=O)c2ccc(Cl)cc2)c(C(=O)Nc2ccc(S(=O)(=O)N3CCSCC3)cc2)cc1OC [Example 59, 2-(4-Chloro-phenylsulfonylamino)-4,5-dimethoxy-N-(4-(thiomorpholine-4-sulfonyl)-phenyl)-benzamide]
n-fold stimulation ([1]; concentration c 50 μM): 34.8 | IC50 (rat aorta rings; ring with endothelium): 520 nM | IC50 (rat aorta rings; ring without endothelium): 270 nM

COc1cc(NS(=O)(=O)c2ccc(Cl)cc2)c(C(=O)Nc2ccc(S(=O)(=O)N3C[C@@H](C)O[C@@H](C)C3)cc2)cc1OC [Example 88, 2-(4-Chloro-phenylsulfonylamino)-N-(4-(cis-2,6-dimethyl-morpholine-4-sulfonyl)-phenyl)-4,5-dimethoxy-benzamide]
n-fold stimulation ([1]; concentration c 50 μM): 24.4 | BP(d) duration of action (pig): >0.125 days | BP(s) duration of action (pig): >10800 s | HR duration of action (pig): >180 min | LVEDP duration of action (pig): >180 min | dP/dtmax duration of action (pig): >180 min | dP/dtmax maximal alteration (pig; contractility, M±SEM): −633 ± 33 mm Hg/sec | BP(d) maximal alteration (pig; diastolic blood pressure, M±SEM): −20 ± 8 mm Hg | HR maximal alteration (pig; heart rate, M±SEM): −8 ± 2 beats/min | LVEDP maximal alteration (pig; left ventricular end-diastolic pressure, M±SEM): −1.3 ± 0.3 mm Hg | BP(s) maximal alteration (pig; systolic blood pressure, M±SEM): −23 ± 6 mm Hg | IC50 (rat aorta rings; ring with endothelium): 670 nM | IC50 (rat aorta rings; ring without endothelium): 290 nM

O=C(Nc1ccc(S(=O)(=O)N2CCOCC2)cc1)c1cc(Cl)ccc1NS(=O)(=O)c1ccc(Cl)s1 [Example 129, 5-Chloro-2-(5-chloro-thiophene-2-sulfonylamino)-N-(4-(morpholine-4-sulfonyl)-phenyl)-benzamide]
n-fold stimulation ([1]; concentration c 50 μM): 8.6 | IC50 (rat aorta rings; ring with endothelium): 460 nM | IC50 (rat aorta rings; ring without endothelium): 310 nM

COc1cc(NS(=O)(=O)c2ccc(Cl)s2)c(C(=O)Nc2ccc(S(=O)(=O)N3CCSCC3)cc2)cc1OC [Example 206, 4,5-Dimethoxy-2-(5-chloro-thiophene-2-sulfonylamino)-N-(4-(thiomorpholine-4-sulfonyl)-phenyl)-benzamide]
n-fold stimulation ([1]; concentration c 50 μM): 19.3

Cc1noc(C)c1S(=O)(=O)Nc1ccc(Cl)cc1C(=O)Nc1ccc(S(=O)(=O)N2CCc3ccccc3C2)cc1 [Example 208, 5-Chloro-2-(3,5-dimethyl-isoxazole-4-sulfonylamino)-N-(4-(1,2,3,4-tetrahydro-isoquinoline-2-sulfonyl)-phenyl)-benzamide]
n-fold stimulation ([1]; concentration c 10 μM): 23.1

Cc1noc(C)c1S(=O)(=O)Nc1ccc(Cl)cc1C(=O)Nc1ccc(S(=O)(=O)N(C)Cc2cccnc2)cc1 [Example 209, 5-Chloro-2-(3,5-dimethyl-isoxazde-4-sulfonylamino)-N-(4-(N-methyl-N-(pyridin-3-yl-methyl)-aminosulfonyl)-phenyl)-benzamide]
n-fold stimulation ([1]; concentration c 10 μM): 28.5

Cc1noc(C)c1S(=O)(=O)Nc1ccc(Cl)cc1C(=O)Nc1ccc(S(=O)(=O)N2C[C@@H](C)O[C@@H](C)C2)cc1 [Example 222, 5-Chloro-2-(3,5-dimethyl-isoxazole-4-sulfonylamino)-N-(4-(cis-2,6-dimethyl-morpholine-4-sulfonyl)-phenyl)-benzamide]
n-fold stimulation ([1]; concentration c 10 μM): 29.5

Cc1noc(C)c1S(=O)(=O)Nc1ccc(Cl)cc1C(=O)Nc1ccc(S(=O)(=O)N2CC(C)CC(C)C2)cc1 (stereo not drawn) [Example 223, 5-Chloro-2-(3,5-dimethyl-isoxazole-4-sulfonylamino)-N-(4-(3,5-dimethylpiperidine-1-sulfonyl)-phenyl)-benzamide]
n-fold stimulation ([1]; concentration c 10 μM): 27.1

Cc1noc(C)c1S(=O)(=O)Nc1ccc(Cl)cc1C(=O)Nc1ccc(S(=O)(=O)N2CCOCC2)cc1 [Example 224, 5-Chloro-2-(3,5-dimethyl-isoxazole-4-sulfonylamino)-N-(4-(morpholine-4-sulfonyl)-phenyl)-benzamide]
n-fold stimulation ([1]; concentration c 50 μM): 27.8

O=C(Nc1ccc(S(=O)(=O)c2ccccc2)cc1)c1cc(Cl)ccc1NS(=O)(=O)c1ccc(Cl)s1 [Example 225]
n-fold stimulation ([1]; concentration c 10 μM): 13.4

C[C@@H]1CN(S(=O)(=O)c2ccc(NC(=O)c3ccc(Cl)cc3NS(=O)(=O)c3ccc(Cl)cc3)cc2)C[C@H](C)O1 [Example 226, 4-Chloro-2-(4-chloro-phenylsulfonylamino)-N-(4-(cis-2,6-dimethyl-morpholine-4-sulfonyl)-phenyl)-benzamide]
n-fold stimulation ([1]; concentration c 25 μM): 3.3
